Data: patent publication US20150305367A1, “FROZEN CONFECTION” (CONOPCO, INC., D/B/A UNILEVER, priority 2012, published 2015)

Columns and labels:
recombinant human MAO-B = target: T1, recombinant human MAO-B (Homo sapiens, UniProt P27338); test: MAO-Glo chemiluminescent MAO-B inhibition assay; type: biochemical; conditions: for MAO-B inhibition (Yes/No): overall verdict over 1, 10 and 100 μM; for inhibition at 1 µM: test concentration 1 μM; for inhibition at 1 µM / inhibition at 10 µM / inhibition at 100 µM: mean ± standard deviation, triplicate, 90 min incubation; for inhibition at 10 µM: test concentration 10 μM; for inhibition at 100 µM: test concentration 100 μM;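 on all read-outs here: MAO-B from microsomes of baculovirus-infected insect cells, luciferin-based luminescence read-out, inhibition relative to enzyme activity with DMSO vehicle alone and no inhibitor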
T1 construct: purchased Sigma-Aldrich; host or cells: baculovirus-infected insect cells (microsomes)
T1 sequence (P27338 1-520): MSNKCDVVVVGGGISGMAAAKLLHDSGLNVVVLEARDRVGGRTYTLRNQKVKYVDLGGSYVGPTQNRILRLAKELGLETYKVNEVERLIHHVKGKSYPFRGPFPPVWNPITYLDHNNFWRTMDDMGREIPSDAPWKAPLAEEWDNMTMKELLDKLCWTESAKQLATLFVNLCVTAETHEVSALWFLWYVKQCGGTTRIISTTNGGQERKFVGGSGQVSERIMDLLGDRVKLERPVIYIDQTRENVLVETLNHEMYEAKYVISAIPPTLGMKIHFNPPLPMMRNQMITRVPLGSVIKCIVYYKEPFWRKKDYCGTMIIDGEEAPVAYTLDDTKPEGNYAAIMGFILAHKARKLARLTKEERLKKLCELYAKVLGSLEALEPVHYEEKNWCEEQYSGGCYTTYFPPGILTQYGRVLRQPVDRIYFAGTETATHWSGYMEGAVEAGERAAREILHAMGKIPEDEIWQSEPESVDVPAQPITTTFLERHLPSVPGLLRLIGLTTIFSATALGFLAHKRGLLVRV

[1] = measured in vivo in rat brain; cited from earlier work

Structure (SMILES)	MAO-B inhibition (Yes/No) (recombinant human MAO-B)	inhibition at 1 µM (recombinant human MAO-B)	inhibition at 10 µM (recombinant human MAO-B)	inhibition at 100 µM (recombinant human MAO-B)	endogenous pool half-life [1]
COc1ccc(C=O)cc1 [4-Methoxybenzaldehyde]	Yes	0%	11 ± 3.8%	75 ± 1.9%	–
CC1=C(O)C(=O)C(C)O1 (stereo not drawn) [4-Hydroxy-2,5-dimethyl-3(2H)-furanone]	No	0%	9 ± 3.3%	7 ± 11.7%	–
COc1cc(CO)ccc1O [Vanillyl Alcohol]	No	2 ± 4%	9 ± 3%	6 ± 5.1%	–
COc1cc(C(=O)O)ccc1O [Vanillic acid]	No	6 ± 4.2%	5 ± 7.3%	11 ± 3.3%	–
CC(=O)C(C)O (stereo not drawn) [3-Hydroxy-2-butanone]	No	11 ± 4.2%	6 ± 5.2%	7 ± 3.4%	–
COc1cc(/C=C/C(=O)O)ccc1O [Ferulic acid]	No	4 ± 1.2%	9 ± 1.7%	4 ± 7%	–
O=C(/C=C/c1ccccc1)OCc1ccccc1 [Benzyl cinnamate]	Yes	10 ± 6.4%	63 ± 3.1%	100%	–
COc1cc(C=O)ccc1O [Vanillin]	–	–	–	19 ± 5.6%	–
O=Cc1ccc(O)cc1 [4-Hydroxybenzaldehyde]	Yes	10 ± 3.2%	6 ± 4.7%	27 ± 5.1%	–
C=CCc1ccc(O)c(OC)c1 [Eugenol]	No	0%	4 ± 4.6%	0%	–
COc1ccccc1O [2-Methoxyphenol]	No	0%	0%	0%	–
NCCc1ccccc1 [phenylethylamine, Phenylethylamine]	–	–	–	–	approximately 30 s
O=Cc1ccc(O)c(O)c1 [3,4-Dihydroxybenzaldehyde]	No	0%	4 ± 5.1%	9 ± 3.6%	–
COc1ccc(C=O)cc1OC [Veratraldehyde]	No	1 ± 1.5%	2 ± 6.6%	0%	–
O=C(O)/C=C/c1ccc(O)cc1 [Coumaric acid]	–	11 ± 4.2%	16 ± 2.8%	17 ± 7.3%	–
OCc1ccc(O)cc1 [4-Hydroxybenzyl alcohol]	No	1 ± 7.9%	0%	6 ± 8.1%	–
O=Cc1ccc2c(c1)OCO2 [Piperonal]	Yes	10 ± 2.9%	53 ± 4%	100%	–
CCOc1cc(C=O)ccc1O [Ethyl vanillin]	No	0%	0%	4 ± 5.3%	–
O=C(O)c1ccc(O)cc1 [4-Hydroxybenzoic acid]	No	13 ± 3.2%	9 ± 5.2%	11 ± 5.7%	–
